Experimental data published in publication PMC11396318, “Lupeol-3-carbamate Derivatives: Synthesis and Biological Evaluation as Potential Antitumor Agents” (Molecules, 2024).
Read-outs that look alike come from different tables or passages of the source.

What was measured:
[1] = tested on: human breast cancer cell line MCF-7; test: MTT anti-proliferative assay, MCF-7; assay type: cell-based; conditions: read-out: IC50 (μM) MCF-7
From the text: (§1) The anti-proliferative activities of 3a–k against human lung cancer cell line (A549), human hepatoma cell line (HepG2), and human breast cancer cell line (MCF-7) were examined. With lupeol and cisplatin as positive controls, the MTT assay was used to evaluate the anti-proliferative activity of all of the synthesized compounds in vitro.
(§2) The MTT (Beyotime, Shanghai, China) colorimetric method was used to test the antitumor activity of the synthetic products. The test compound and the control compound were prepared into the liquid with a concentration of 1, 5, 10, 20, and 40 μmol/L, respectively. The tested tumor cells (A549, HepG2, MCF-7) (Chinese Academy of Sciences, Shanghai, China) were inoculated into 96 well plates with a density of 2 × 10^4 cells/mL, and 90 μL PBS was injected into each well. The 96 well plates were cultured overnight in an incubator, and each well was injected with the same concentration of 10 μL of the test compound. After 48 h, 10 μL of MTT solution was injected into each well. After culture for 4 h, the plates were turned upside down and 100 μL DMSO (Kermel, Tianjin, China) was added. The optical density (OD) values of the compound and the control product were determined at 490 nm wavelength with enzyme-labeled apparatus.

[2] = tested on: human lung cancer cell line A549; test: MTT anti-proliferative assay, A549; assay type: cell-based; conditions: read-out: IC50 (μM) A549
From the text: as §1, §2

[3] = tested on: human liver cancer cell line HepG2; test: MTT anti-proliferative assay, HepG2; assay type: cell-based; conditions: for IC50: read-out: IC50 (μM) HepG2
From the text: as §1, §2

A549, HepG2, MCF-7 = test: MTT anti-proliferative assay, stated for all three tumor cell lines together; assay type: cell-based, human; conditions: for anti-proliferative activity compared with lupeol: three tested cell lines; for IC50: Homo sapiens, 48 h, A549, HepG2 and MCF-7, 48 h, span or bound over the three lines, read-out: IC50 against all three tumor cell lines
From the text: as §1, §2

HepG2 cells [4] = test: Mitochondrial membrane potential depolarization, JC-1; assay type: cell-based, human; conditions: 48 h; for MMP depolarization: JC-1 flow cytometry, control 7.74%
From the text: In order to explore the effect of compound 3k·CH3I on MMP, a JC-1 staining kit was used to detect the depolarization of the MMP of human hepatocellular carcinoma HepG2 cells treated with compound 3k·CH3I, as shown in Figure 8.
Flow cytometry was used to detect the intimal potential of HepG2 cells. […] It was concluded that the apoptosis of HepG2 cells was induced by compound 3k·CH3I and was associated with the mitochondrial-mediated endogenous pathway.
HepG2 cells with logarithmic growth stage were selected and inoculated into a designated confocal six-well plate with 2 mL cell suspension per well (1 × 10^6 cells/mL) and cultured in a sterile incubator for 24 h. The cells were treated with different concentrations of 3k·CH3I (0, 2, 4, 8 μmol/L) and continued to be cultured for 48 h. PBS cleans the cells, 0.25% trypsin digests the cells, and collects the cells. After the drug action time was over, 1 mL of pre-configured JC-1 staining solution was added and incubated for 30 min. After JC-1 incubation, the cells were observed by fluorescence microscope, the supernatant was separated, and the PBS cell suspension was taken and the experimental results were determined by flow cytometry.

HepG2 cells [5] = test: Annexin V/PI apoptosis by flow cytometry; assay type: cell-based, human; conditions: 48 h, control 3.03%
Method: HepG2 cells with logarithmic growth stage were selected and inoculated into a designated confocal six-well plate with 2 mL cell suspension per well (1 × 10^6 cells/mL) and cultured in a sterile incubator for 24 h. […] The cellular preparations were initially rinsed with phosphate-buffered saline (PBS), followed by enzymatic detachment using a 0.25% trypsin solution. Post-collection, the cells underwent centrifugation at 800 revolutions per minute (rpm) for a duration of 5 min to pelletize. The resulting cell pellet was subsequently re-suspended in 1 mL of culture medium designed for cell propagation. The 100 µL cell suspension was transferred into a flow detection tube, with 5 µL AnnexinV added, cultured at room temperature away from light for 15 min, and centrifuged at 800 revolutions per minute (rpm) for a period of 5 min, after which the supernatant containing the staining solution was aspirated. Then, 100 µL of binding buffer for re-suspension and 5 µL of PI dye were added and the solution was mixed well and incubated at low temperature, avoiding light for 15 min. The results were measured by flow cytometry.

[6] = tested on: PI3K/AKT/mTOR pathway in HepG2 cells; test: Western blotting of PI3K/AKT/mTOR-related proteins; assay type: cell-based, human; conditions: HepG2, 2, 4 and 8 μmol/L, 48 h, relative to control
Method: In order to better comprehend the effect of compound 3k·CH3I on the expression of proteins related to the mitochondrial apoptosis pathway, HepG2 cells were treated with 3k·CH3I at different concentrations (0, 2, 4, and 8 μmol/L), and Western blotting was used to determine the expression of related proteins, as shown in Figure 9.
HepG2 cells with logarithmic growth stage were selected to make a single-cell suspension and inoculated into a culture bottle with a cell density of 1 × 10^6 cells/mL. The cells were treated with different concentrations of compound 3k·CH3I (0, 2, 4 and 8 μmol/L) and cultured for 48 h. A mixture of 500 μL of phenylmethylsulfonyl fluoride (PMSF) and radio immunoprecipitation assay (RIPA) lysate was added to each well, and the protein content was determined using the bicinchoninic acid (BCA) assay and denatured at high temperature 30 min later. The protein samples were separated by polyacrylamide gel electrophoresis (SDS-PAGE) and transferred to a polyvinylidene fluoride (PVDF) membrane. The membrane was enclosed in 5% skim milk for 2 h, then specific antibodies of different proteins were added, incubated at 4 °C overnight, and secondary antibodies were added for 2 h. Finally, the gel imager was used for detection. […] The gray-scale of the bands was analyzed by gel imaging image analysis software and the relative protein content was calculated.

HepG2 cells [7] = test: Intracellular ROS, DCFH-DA, flow cytometry; assay type: cell-based, human; conditions: HepG2, 2, 4 and 8 μmol/L, 48 h, compared with the control group
Method: Flow cytometry was additionally used to determine the effect of compound 3k·CH3I on ROS levels in HepG2 cells.
HepG2 cells were inoculated into a six-well plate with 2 mL cell suspension per well at a concentration of 1 × 10^6 cells/mL overnight in an incubation chamber maintained at 37 °C with a 5% CO2 atmosphere. The cells were treated with different concentrations of compound 3k·CH3I (0, 2, 4 and 8 μmol/L) and continued to be cultured for 48 h. The cells underwent a PBS rinse to cleanse them, subsequent digestion with a 0.25% trypsin solution to facilitate detachment, and subsequent centrifugation at 800 revolutions per minute (rpm) for 5 min to sediment the cells. The ensuing cell pellet was then re-suspended in 1 mL of nutrient-rich cell culture medium for further experimental procedures. Then, 5 μmol/L DCFH-DA solution was added to each well and they were incubated for 30 min away from light. After incubation, the cells were digested, the supernatant was centrifuged, and the PBS cell suspension was taken and placed in a flow cytometry to determine the experimental results.

HepG2 cells [8] = test: AO/EB double staining, cell morphology; assay type: cell-based, human; conditions: HepG2, 48 h, 2, 4 and 8 μmol/L
Method: The apoptotic morphological alterations induced by compound 3k·CH3I in HepG2 cells were scrutinized after a 48-h treatment using the acridine orange/ethidium bromide (AO/EB) double staining method, as depicted in Figure 6.
In this study, human hepatoma HepG2 cells were treated with compound 3k·CH3I, and the tested cells were stained by the AO/EB double staining (KeyGEN BioTECH, Nanjing, China) method to observe the morphological changes of the cells. HepG2 cells of logarithmic growth stage were inoculated into confocal six-well plates, and a volume of 2 mL of the cell suspension, adjusted to a concentration of 1 × 10^6 cells per milliliter, was introduced into each well. The cells were cultured in an aseptic constant temperature incubator for 24 h, and 3k·CH3I solution with concentrations of 0, 2, 4, and 8 μmol/L was added successively, and the culture continued for 48 h. The cellular specimens were rinsed with phosphate-buffered saline (PBS) on two occasions, after which 500 µL of staining buffer was introduced to the preparation, followed by storage in a light-protected environment for subsequent analysis. AO (5 µL) and EB (5 µL) staining solutions were added to the six-well plates successively, mixed and incubated at 4 °C for 20 min under light protection, then PBS was added and observed under a fluorescence microscope.

[9] = MTT assay, 48 h of treatment, three independent experiments
[10] = Homo sapiens, MCF7, MTT assay, 48 h of treatment, three independent experiments
[11] = Homo sapiens, A549, MTT assay, 48 h of treatment, three independent experiments
[12] = Homo sapiens, HepG2, MTT assay, 48 h of treatment, three independent experiments

SMILES | IC50 [1, 10] | anti-proliferative activity compared with lupeol (A549, HepG2, MCF-7) | IC50 [2, 11] | IC50 [3, 12] | other results
N.N.[Cl][Pt][Cl] [Cisplatin, reference compound] | – | – | – | – | IC50 [1, 9]: 5.27 ± 0.68 µM; IC50 [2, 9]: 4.65 ± 0.52 µM; IC50 [3, 9]: 4.05 ± 0.45 µM
C=C(C)[C@@H]1CC[C@]2(C)CC[C@]3(C)C(CCC4[C@@]5(C)CC[C@H](OC(=O)N(C)C)C(C)(C)C5CC[C@]43C)C12 (stereo partly shown) [Compound 3a, Lupeol-3-(dimethyl) Carbamate] | – | – | – | – | IC50 ([1]; Homo sapiens, MCF7, 48 h): 10.2 ± 1.24 µM; IC50 ([2]; Homo sapiens, A549, 48 h): 14 ± 1.03 µM; IC50 ([3]; Homo sapiens, HepG2, 48 h): 11.1 ± 1.45 µM
C=C(C)[C@@H]1CC[C@]2(C)CC[C@]3(C)C(CCC4[C@@]5(C)CC[C@H](OC(=O)N(CC)CC)C(C)(C)C5CC[C@]43C)C12 (stereo partly shown) [Compound 3b, Lupeol-3-(diethyl) Carbamate] | – | – | – | – | IC50 ([1]; Homo sapiens, MCF7, 48 h): 12.7 ± 1.43 µM; IC50 ([2]; Homo sapiens, A549, 48 h): 14 ± 1.25 µM; IC50 ([3]; Homo sapiens, HepG2, 48 h): 13.8 ± 1.23 µM
C=C(C)[C@@H]1CC[C@]2(C)CC[C@]3(C)C(CCC4[C@@]5(C)CC[C@H](OC(=O)N(CCC)CCC)C(C)(C)C5CC[C@]43C)C12 (stereo partly shown) [Compound 3c, Lupeol-3-(dipropyl) Carbamate] | 15.3 ± 1.11 µM | more potent than that of lupeol | 15.5 ± 1.2 µM | 5.39 ± 0.77 µM | –
C=C(C)[C@@H]1CC[C@]2(C)CC[C@]3(C)C(CCC4[C@@]5(C)CC[C@H](OC(=O)N6CCCC6)C(C)(C)C5CC[C@]43C)C12 (stereo partly shown) [Compound 3d, Lupeol-3-(pyrrolidine-1-carboxylate)] | 12.4 ± 1.55 µM | – | 11.3 ± 1.14 µM | 17.7 ± 1.35 µM | –
C=C(C)[C@@H]1CC[C@]2(C)CC[C@]3(C)C(CCC4[C@@]5(C)CC[C@H](OC(=O)N6CCCCC6)C(C)(C)C5CC[C@]43C)C12 (stereo partly shown) [Compound 3e, Lupeol-3-(piperidine-1-carboxylate)] | 14 ± 1.58 µM | more potent than that of lupeol | 13.2 ± 1.56 µM | 6.91 ± 1.6 µM | IC50 (A549, HepG2, MCF-7): < 20 µM
C=C(C)[C@@H]1CC[C@]2(C)CC[C@]3(C)C(CCC4[C@@]5(C)CC[C@H](OC(=O)N6CCOCC6)C(C)(C)C5CC[C@]43C)C12 (stereo partly shown) [Compound 3f, Lupeol-3-(morpholine-1-carboxylate)] | 11.3 ± 1.21 µM | – | 6.76 ± 0.96 µM | 10.8 ± 1.52 µM | –
C=C(C)[C@@H]1CC[C@]2(C)CC[C@]3(C)C(CCC4[C@@]5(C)CC[C@H](OC(=O)N6CCSCC6)C(C)(C)C5CC[C@]43C)C12 (stereo partly shown) [Compound 3g, Lupeol-3-(thiomorpholine-1-carboxylate)] | 7.77 ± 1.09 µM | – | 8.19 ± 1.02 µM | 10.1 ± 1.78 µM | –
C=C(C)[C@@H]1CC[C@]2(C)CC[C@]3(C)C(CCC4[C@@]5(C)CC[C@H](OC(=O)N6CCNCC6)C(C)(C)C5CC[C@]43C)C12 (stereo partly shown) [Compound 3h, Lupeol-3-(piperazine-1-carboxylate)] | 9.78 ± 1.2 µM | – | 12 ± 1.47 µM | 11.2 ± 1.45 µM | IC50 (A549, HepG2, MCF-7): < 20 µM
C=C(C)[C@@H]1CC[C@]2(C)CC[C@]3(C)C(CCC4[C@@]5(C)CC[C@H](OC(=O)N6CCN(C)CC6)C(C)(C)C5CC[C@]43C)C12 (stereo partly shown) [Compound 3i, Lupeol-3-((4-methylpiperazine)-1-carboxylate)] | 8.2 ± 1.46 µM | – | 5.74 ± 0.83 µM | 9.43 ± 1.21 µM | –
C=C(C)C1CCC2(C)CCC3(C)C(CCC4C5(C)CCC(OC(=O)N6CCN(c7ccncc7)CC6)C(C)(C)C5CCC43C)C12 (stereo not shown) [Compound 3k, Lupeol-3-((4-(pyridin-4-yl)piperazine)-1-carboxylate)] | 19.9 ± 1.82 µM | more potent than that of lupeol | 12.1 ± 1.35 µM | 14 ± 1.65 µM | IC50 (A549, HepG2, MCF-7): < 20 µM
C=C(C)C1CCC2(C)CCC3(C)C(CCC4C5(C)CCC(OC(=O)N6CCN(c7cc[n+](C)cc7)CC6)C(C)(C)C5CCC43C)C12 (stereo not shown) [Compound 3k·CH3I] | – | more potent than that of lupeol | – | 3.13 µM | MMP depolarization (HepG2 cells [4]; HepG2, 2 μmol/L): 17.2%; MMP depolarization (HepG2 cells [4]; HepG2, 4 μmol/L): 27.3%; MMP depolarization (HepG2 cells [4]; HepG2, 8 μmol/L): 48.9%; JC-1 fluorescence (microscopy) (HepG2 cells [4]; HepG2, different concentrations, compared with the control group): the red fluorescence gradually weakened until it eventually disappeared, and the green fluorescence gradually strengthened; total percentage of apoptotic and necrotic cells (HepG2 cells [5]; HepG2, 4 μmol/L): 45.10%; total percentage of apoptotic and necrotic cells (HepG2 cells [5]; HepG2, 8 μmol/L): 55.6%; expression of P-AKT, P-PI3K and P-mTOR [6]: downregulation; expression of basal forms of AKT, PI3K and mTOR [6]: dose-dependent upregulation; ROS levels (HepG2 cells [7]): increased significantly; apoptotic morphological alterations (AO/EB staining) (HepG2 cells [8]): bright red fluorescence due to the chromatin concentration and nuclear fragmentation; activity on HepG2 relative to lupeol ([3]; HepG2, ratio of IC50): about 10 times
C=C(C)[C@@H]1CC[C@]2(C)CC[C@]3(C)[C@H](CC[C@@H]4[C@@]5(C)CC[C@H](O)C(C)(C)[C@@H]5CC[C@]43C)[C@@H]12 [Lupeol] | 62 ± 1.79 µM | – | 35.9 ± 1.58 µM | 43.6 ± 1.37 µM | –
